# Data: patent US20240174637A1, “DEGRADERS OF GRK2 AND USES THEREOF” (Sonata Therapeutics, Inc., priority 2021, published 2024)
# Like-named read-outs stand apart in the source and are kept apart here.
# How the values were obtained:
# Type in all cases: cell-based
# GRK2 = target: T1, GRK2 (Homo sapiens, UniProt P25098); experiment: GRK2 Degradation Assay and Western Blot in PAXF1657 cells; parameters: endogenous in cells; host or cells: PAXF1657
# T1 sequence (P25098 1-689): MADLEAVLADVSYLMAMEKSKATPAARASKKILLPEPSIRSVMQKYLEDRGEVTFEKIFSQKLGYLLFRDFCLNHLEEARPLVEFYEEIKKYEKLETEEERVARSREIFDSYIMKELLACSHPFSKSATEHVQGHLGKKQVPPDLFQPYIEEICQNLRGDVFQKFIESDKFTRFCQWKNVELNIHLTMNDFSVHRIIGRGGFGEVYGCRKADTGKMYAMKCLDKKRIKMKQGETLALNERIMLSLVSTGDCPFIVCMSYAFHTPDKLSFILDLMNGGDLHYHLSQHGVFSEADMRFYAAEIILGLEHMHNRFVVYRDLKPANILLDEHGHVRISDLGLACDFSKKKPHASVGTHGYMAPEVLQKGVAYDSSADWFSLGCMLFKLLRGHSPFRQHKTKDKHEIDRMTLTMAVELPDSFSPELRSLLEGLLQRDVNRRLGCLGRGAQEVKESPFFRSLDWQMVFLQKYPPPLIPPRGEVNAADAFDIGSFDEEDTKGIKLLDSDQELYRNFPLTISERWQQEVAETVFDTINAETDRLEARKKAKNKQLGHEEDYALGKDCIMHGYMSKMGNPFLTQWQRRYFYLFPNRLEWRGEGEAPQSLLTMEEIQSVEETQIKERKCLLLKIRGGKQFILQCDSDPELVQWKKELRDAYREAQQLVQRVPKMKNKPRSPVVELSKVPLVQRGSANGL
# Method: General Protocol: Degradation Assay and Western Blot. PAXF1657 cells were plated in 6-well, 24-well plates or 60 mm tissue culture treated dishes and incubated at 37° C. until 70% confluency. The media was aspirated, and the cells were treated with fresh media containing the compounds in the concentration range of 0 μM to 10 μM for a period of 6 to 24 hours. At the desired time points the cells were washed twice with cold PBS and lysed with lysis buffer (ice cold PBS+1% NP40 with 1/100 protease/phosphatase inhibitors) on ice for 8 mins followed by sonication at 70% intensity pulses for 10 seconds. The cells were centrifuged at 20000 g for 8 min at 4° C. The supernatants were collected and stored at −80° C.
# Samples were mixed with NuPAGE LDS sample buffer and NuPAGE sample reducing buffer (3×), vortexed and heated at 95° C. for 10 min, and then analyzed by SDS-PAGE (NuPAGE 4-12%) followed by transfer to nitrocellulose membrane. […] The membranes were washed three times with TBST and incubated with GRK2 or R-actin antibodies in 5% milk in TBST at 4° C. overnight. The membranes were washed three times with TBST and incubated with anti-mouse IgG-HRP or anti-rabbit IgG-HRP at room temperature for 2 hours in 5% milk in TBST. The membranes were washed three times with TBST and developed with ECL Dura, ECL femto or ECL atto substrates.
# PAXF1657 EV = experiment: 7-day cellular proliferation assay (CellTiter-Glo), PAXF1657 EV
# Method: (§1) In order to identify compounds specific for GRK2, we generated two isogenic cell line pairs of the pancreatic cancer cell line PAXF1657, a pair of cells stably overexpressing GRK2 cDNA or the control empty vector and a cell line pair of PAXF1657 GRK2 knockout clonal cells versus non-targeting control clonal cells.
# (§2) Proliferation Assay: Cellular anti-proliferative activity of compounds was assessed by using the pancreatic cancer cell line, PAXF1657, stably overexpressing GRK2 cDNA or the control empty vector, as well as the parental urinary bladder cancer cell line, 5637. In addition, we also took advantage of GRK2 knockout cell lines that were generated via CRISPR. Cell lines were seeded into tissue culture treated, white-walled, 96-well plates at a density of 500 cells/well in RPMI1640 media supplemented with 10% H.I. FBS and penicillin/streptomycin. Plates were incubated overnight at 37° C., 5% CO2 to allow cells to adhere to the wells. GRK2 inhibitors were added to the cells using a 10-point dilution series with a final concentration ranging from 30 μM-0.0002 μM in 0.3% DMSO. At the time of compound addition, a set of plates, that were not treated with compounds, were collected and cell viability was measured using CellTiter-Glo (Promega). CellTiter-Glo reagent was added to the designed plates and luminescence was measuring using a Biotek Synergy plate reader. The compound treated cells were incubated for 3 days at 37° C., 5% CO2. The media was then aspirated from each well and replaced with fresh media containing GRK2 inhibitors. The compound treated cells were then incubated for an additional 4 days at 37° C., 5% CO2. Cell viability was assessed and at end of the 7-day compound treatment by CellTiterGlo.
# PAXF1657 KO Clone #4 = experiment: 7-day cellular proliferation assay (CellTiter-Glo), PAXF1657 KO Clone #4
# Method: as §1, §2
# [1] = Conc 0.3 uM, read-out: Degradation Assay - 3 point: Degradation (%)
# [2] = Conc 1 uM, read-out: Degradation Assay - 3 point: Degradation (%)
# [3] = Conc 3 uM, read-out: Degradation Assay - 3 point: Degradation (%)
# [4] = proliferation, read-out: GeoMean IC50 (UM) PAXF1657 EV
# [5] = proliferation, read-out: GeoMean IC50 (uM) PAXF1657 KO Clone #4
Structure (SMILES),inhibition at 0.3 µM (GRK2; [1]),inhibition at 1 µM (GRK2; [2]),inhibition at 3 µM (GRK2; [3]),"inhibition at 0.3 µM (GRK2; 0.3 uM, PAXF1657 EV, 24 hrs, read-out: % GRK2 degradation at 0.3 uM in PAXF1657 EV (24 hrs))","inhibition at 1 µM (GRK2; 1 uM, PAXF1657 EV, 24 hrs, read-out: % GRK2 degradation at 1 uM in PAXF1657 EV (24 hrs))","inhibition at 3 µM (GRK2; 3 uM, PAXF1657 EV, 24 hrs, read-out: % GRK2 degradation at 3 uM in PAXF1657 EV (24 hrs))",IC50 (PAXF1657 EV; [4]),IC50 (PAXF1657 KO Clone #4; [5]),"IC50 (PAXF1657 EV; 168 h, 7-day, read-out: 7-day proliferation assay: IC50 GeoMean (uM) [Cell Line: PAXF1657 EV])","IC50 (PAXF1657 KO Clone #4; 168 h, 7-day, read-out: 7-day proliferation assay: IC50 GeoMean (uM) [Cell Line: PAXF1657 KO Clone #4])"
"Cn1c(CNc2cccc(C(=O)N[C@@H]3CCOc4ccc(OCCCCCCOCCOCCOCCCCCC(=O)Nc5cccc6c5CN(C5CCC(=O)NC5=O)C6=O)cc43)c2)nnc1-c1ccncn1 (stereo partly drawn) [Compound D187, N-((4R)-6-(6-(2-(2-(6-(2-(2,6-dioxopiperidin-3-yl)-1-oxoisoindolin-4-ylamino)-6-oxohexyloxy)ethoxy)ethoxy)hexyloxy)chroman-4-yl)-3-((4-methyl-5-(pyrimidin-4-yl)-4H-1,2,4-triazol-3-yl)methylamino)benzamide]",11.8%,23.8%,63.1%,–,–,–,2.09 µM,> 30 µM,–,–
C[C@@H](NC(=O)c1cccc(NCc2nnc(-c3ccncn3)n2C)c1)c1cccc(OCCCCCn2cc(CCCCC(=O)Nc3cccc4c3CN(C3CCC(=O)NC3=O)C4=O)nn2)c1 (some centres unmarked) [Compound D164],17.1%,14.1%,42.6%,–,–,–,5.09 µM,> 30 µM,–,–
C[C@@H](NC(=O)c1cccc(NCc2nnc(-c3ccncn3)n2C)c1)c1cccc(OCCCCCn2cc(CCCC(=O)Nc3cccc4c3CN(C3CCC(=O)NC3=O)C4=O)nn2)c1 (some centres unmarked) [Compound D157],13.5%,11.1%,42.3%,–,–,–,7.39 µM,> 30 µM,–,–
Cc1ncsc1-c1ccc(CNC(=O)[C@@H]2C[C@@H](O)CN2C(=O)[C@@H](NC(=O)CCCc2cn(CCCCCOc3cccc(CNC(=O)c4cccc(NCc5nnc(-c6ccncn6)n5C)c4)c3)nn2)C(C)(C)C)cc1 [Compound D81],–,–,–,-3%,1%,5%,–,–,> 10 µM,> 10 µM
"Cn1c(CNc2cccc(C(=O)N[C@H]3CCOc4ccc(OCCCCCOCCCOCC(=O)Nc5cccc6c5CN(C5CCC(=O)NC5=O)C6=O)cc43)c2)nnc1-c1ccncn1 (stereo partly drawn) [Compound D155, N-((4S)-6-(5-(3-(2-(2-(2,6-dioxopiperidin-3-yl)-1-oxoisoindolin-4-ylamino)-2-oxoethoxy)propoxy)pentyloxy)chroman-4-yl)-3-((4-methyl-5-(pyrimidin-4-yl)-4H-1,2,4-triazol-3-yl)methylamino)benzamide]",61.9%,58.1%,-21.9%,–,–,–,> 30 µM,> 30 µM,–,–
"Cc1ncsc1-c1ccc(CNC(=O)[C@@H]2C[C@@H](O)CN2C(=O)[C@@H](NC(=O)COCCCOCCCCCOc2cccc([C@H](C)NC(=O)c3cccc(NCc4nnc(-c5ccncn5)n4C)c3)c2)C(C)(C)C)cc1 [Compound D184, (2S,4R)-1-((S)-3,3-dimethyl-2-(2-(3-((5-(3-((S)-1-(3-(((4-methyl-5-(pyrimidin-4-yl)-4H-1,2,4-triazol-3-yl)methyl)amino)benzamido)ethyl)phenoxy)pentyl)oxy)propoxy)acetamido)butanoyl)-4-hydroxy-N-(4-(4-methylthiazol-5-yl)benzyl)pyrrolidine-2-carboxamide]",1.96%,17.7%,20.6%,–,–,–,–,–,–,–

# Further lines, with some results ahead:
inhibition at 0.3 µM (GRK2; [1]),inhibition at 1 µM (GRK2; [2]),inhibition at 3 µM (GRK2; [3]),"inhibition at 0.3 µM (GRK2; 0.3 uM, PAXF1657 EV, 24 hrs, read-out: % GRK2 degradation at 0.3 uM in PAXF1657 EV (24 hrs))","inhibition at 1 µM (GRK2; 1 uM, PAXF1657 EV, 24 hrs, read-out: % GRK2 degradation at 1 uM in PAXF1657 EV (24 hrs))","inhibition at 3 µM (GRK2; 3 uM, PAXF1657 EV, 24 hrs, read-out: % GRK2 degradation at 3 uM in PAXF1657 EV (24 hrs))",Structure (SMILES),IC50 (PAXF1657 EV; [4]),IC50 (PAXF1657 KO Clone #4; [5]),"IC50 (PAXF1657 EV; 168 h, 7-day, read-out: 7-day proliferation assay: IC50 GeoMean (uM) [Cell Line: PAXF1657 EV])","IC50 (PAXF1657 KO Clone #4; 168 h, 7-day, read-out: 7-day proliferation assay: IC50 GeoMean (uM) [Cell Line: PAXF1657 KO Clone #4])"
2.78%,35.8%,58.5%,–,–,–,"Cn1c(CNc2cccc(C(=O)NCc3cccc(OCCCCCOCCCOCC(=O)N4CCN(c5ccc6c(c5)CN(C5CCC(=O)NC5=O)C6=O)CC4)c3)c2)nnc1-c1ccncn1 (centres unmarked) [Compound D189, N-(3-((5-(3-(2-(4-(2-(2,6-dioxopiperidin-3-yl)-1-oxoisoindolin-5-yl)piperazin-1-yl)-2-oxoethoxy)propoxy)pentyl)oxy)benzyl)-3-(((4-methyl-5-(pyrimidin-4-yl)-4H-1,2,4-triazol-3-yl)methyl)amino)benzamide]",0.42 µM,> 30 µM,–,–
25%,15%,0%,–,–,–,"C[C@@H](NC(=O)c1cccc(NCc2nnc(-c3ccncn3)n2C)c1)c1cccc(OCCCCCOCCCOCC(=O)Nc2cccc3c2CN(C2CCC(=O)N(C)C2=O)C3=O)c1 (stereo partly drawn) [Compound D194, N-((1R)-1-(3-((5-(3-(2-((2-(1-methyl-2,6-dioxopiperidin-3-yl)-1-oxoisoindolin-4-yl)amino)-2-oxoethoxy)propoxy)pentyl)oxy)phenyl)ethyl)-3-(((4-methyl-5-(pyrimidin-4-yl)-4H-1,2,4-triazol-3-yl)methyl)amino)benzamide]",–,–,–,–
-46.4%,9.8%,32.1%,–,–,–,"Cn1c(CNc2cccc(C(=O)NCc3cccc(OCCCCCCOCCOCCOCCC(=O)Nc4cccc5c4CN(C4CCC(=O)NC4=O)C5=O)c3)c2)nnc1-c1ccncn1 (centres unmarked) [Compound D195, N-(3-(6-(2-(2-(3-(2-(2,6-dioxopiperidin-3-yl)-1-oxoisoindolin-4-ylamino)-3-oxopropoxy)ethoxy)ethoxy)hexyloxy)benzyl)-3-((4-methyl-5-(pyrimidin-4-yl)-4H-1,2,4-triazol-3-yl)methylamino)benzamide]",1.09 µM,> 30 µM,–,–
13.5%,37.4%,56.2%,–,–,–,"Cn1c(CNc2cccc(C(=O)N[C@@H]3CCOc4ccc(OCCCCCOCCCOCC(=O)Nc5cccc6c5CN(C5CCC(=O)NC5=O)C6=O)cc43)c2)nnc1-c1ccncn1 (stereo partly drawn) [Compound D192, N-((4R)-6-(5-(3-(2-(2-(2,6-dioxopiperidin-3-yl)-1-oxoisoindolin-4-ylamino)-2-oxoethoxy)propoxy)pentyloxy)chroman-4-yl)-3-((4-methyl-5-(pyrimidin-4-yl)-4H-1,2,4-triazol-3-yl)methylamino)benzamide]",–,–,–,–
19.3%,16.7%,29.6%,–,–,–,"C[C@H](NC(=O)c1cccc(NCc2nnc(-c3ccncn3)n2C)c1)c1cccc(OCCCCCCOCCOCC(=O)Nc2cccc3c2CN(C2CCC(=O)NC2=O)C3=O)c1 (stereo partly drawn) [Compound D193, N-((1S)-1-(3-((6-(2-(2-((2-(2,6-dioxopiperidin-3-yl)-1-oxoisoindolin-4-yl)amino)-2-oxoethoxy)ethoxy)hexyl)oxy)phenyl)ethyl)-3-(((4-methyl-5-(pyrimidin-4-yl)-4H-1,2,4-triazol-3-yl)methyl)amino)benzamide]",–,–,–,–
